We go through 2 molecules from patent US20260207632A1, “C[…] THERAPY” (KINGDOM THERAPEUTICS LIMITED, priority 2022, published 2026).

SMILES strings stand for the structures.

For assay [1], the system named is rat VPA model of autism. Kind of assay: Juvenile social play behaviour (P30) in the in utero valproic acid (VPA) rat model of autism. More on the design: key to play behaviour: +: improvement; Ø: no change. Type of assay: in vivo. The method, then: Time-mated female Wistar rats were administered a single dose of valproic acid (VPA, 600 mg/kg, i.p.) on gestational day 12.5 (VPA/VEH). To determine behavioural deficits in the VPA autism model, male offspring were tested at juvenile (postnatal day 30) for the presence of abnormal behaviours associated with autism e.g., decreased sociability and increased irritability.
(§1) In the first study, a sub-chronic 8-day dosing schedule was employed with the test compound CBD administered alone (10, 30 and 60 mg/kg, p.o. VPA/CBD; dose volume 5 ml/kg). Control animals were administered sterile saline (0.9% w/v, i.p.) in utero and the vehicle control (ethanol: Kolliphor HS-15:0.9% saline (1:1:18, v/v/v) p.o. VEH/VEH). The test compound and vehicle control were administered to the animals once daily for 7 days prior to, and once again on each day of behavioural assessment, 60 minutes prior to test which consisted of a battery of behavioural paradigms: P30 social play and bottle brush test, P31-32 open field exploratory behaviour. A reference positive control, the atypical antipsychotic risperidone (0.125 mg/kg, i.p., once per day for 8 days prior to and for duration of behavioural testing), was included in study one for comparison. Subsequent to behavioural analysis the effect of CBD on gastrointestinal permeability was evaluated four hours following oral administration of fluorescein isothiocyanate-labelled dextran measured in plasma on postnatal day 33. On postnatal day 34, 60 minutes post a final treatment with the test agents, animals were humanely euthanised and samples collected to evaluate inflammatory biomarkers, gastrointestinal function and histology. 5 In the second study, the sub-optimal dose of CBD (30 mg/kg, p.o.) was evaluated in combination with administration of THC at increasing concentration (0.75, 1.5 and 3 mg/kg, p.o. VPA/CBD+THC). Comparison was made to CBD administered alone at the sub-optimal and effective doses (30 and 60 mg/kg, p.o.) and to vehicle controls as per study one. Behavioural and gastrointestinal readouts were examined as per study one with terminal samples collected on the final day of the experiment.
Time-mated female Wistar Han Rcc rats (Envigo, UK) were administered a single dose of valproic acid (VPA, Sigma Aldrich, Ireland, lot no. MKCB2699V, 600 mg/kg, i.p.) or vehicle (0.9% saline i.p.) on gestational day 12.5. Confirmation of the VPA induced developmental deficit was rapidly achieved by examination of characteristic “tail kinks” observed in all of the juvenile animals exposed to VPA. Litters were normalised to 8 animals and to male offspring at postnatal day 3. Male pups were cross fostered to make up the uniform litter size of eight. Male offspring were housed as per standard laboratory conditions until time of experimental use. Vehicle-treated control animals were employed as controls, with animals for both parts of the study prepared together. At weaning, animals were allocated into test groups according to a balanced design based on weight and litter to distribute these equally across each treatment group. Animals were introduced to the experimental holding rooms prior to the commencement of the study, housed in groups of 4 during this period in soft bottomed cages with sawdust bedding material, with enrichment consisting of nesting material, cardboard tubes and Perspex internal shelter, and maintained at 22-24° C. on a standard 12-hour light/dark cycle (07.30-19.30), with food and water available ad libitum. All animals were examined and weighed daily during drug treatment and experimental protocols. All procedures were carried out by individuals retaining the appropriate authorisation from the Irish Government Health Products Regulatory Authority. Furthermore, the study protocol was approved by the Animal Research Ethics Committee of University College Dublin, Ireland. […]

The subject of assay [2] is rodent in utero VPA model of autism. Nature of the assay: Behavioural changes in rodent in utero VPA model of autism (overall conclusion). Type of assay: in vivo, rat. The following applies: sub-chronic treatment with CBD alone, p.o. How it is done:
as §1, with “A reference positive control, the atypical antipsychotic risperidone (0.125 mg/kg, i.p., once per day for 8 days prior to and for duration of behavioural testing), was included in study one for comparison.” left out, “On postnatal day 34, 60 minutes post a final treatment with the test agents, animals were humanely euthanised and samples collected to evaluate inflammatory biomarkers, gastrointestinal function and histology.” left out, “Comparison was made to CBD administered alone at the sub-optimal and effective doses (30 and 60 mg/kg, p.o.) and to vehicle controls as per study one.” left out
Two experimental studies carried out 1). that established the effective dose of CBD and 2). determined the additive effect of CBD in combination with THC at increasing ratios. […]

The test system of assay [3] is rat VPA model of autism. Kind of assay: Muscle thickness in rat colonic tissue (H&E histology), VPA rat model. Format: in vivo. The following applies: for Average Muscle Thickness: VPA in utero. How it is done: Five animals were chosen at random from each of the agreed treatment groups. Colon tissue was collected after euthanasia, weighted, flushed using cold sterile saline, and divided into three sections. One distal sample (approx. 1 cm×1 cm) was employed for intestinal myeloperoxidase (MPO) activity as described below by Berand Ltd. This sample was weighed and stored at −80° C. until use. A second proximal colon sample (approx. 1 cm×5 cm) was prepared for histological analysis by collection using the Swiss roll technique, placed into a cassette for paraffin embedding and preservation in 10% formalin solution for 24 hours. They were then transferred into 70% ethanol solution until paraffin embedded. These samples were shipped in 70% ethanol solution to Transpharmation Ltd at trinity College Dublin, Ireland for further processing. Haematoxylin & eosin staining was performed on the tissue before imaging. Five images were taken from each animal at 1.25× magnification. Using ImageJ the thickness of the muscle layer was measured at 5 locations throughout the section. A third medial section of colon (approx. 1 cm×2.5 cm) was frozen in liquid nitrogen for the analysis of cytokine expression and was shipped at minus 80° C. to Transpharmation Ltd at Trinity College Dublin, Ireland.
Staining was performed using the Haematoxylin and Eosin kit from Vector Laboratories (Cat. No. H-3502). Sections were deparaffinized and rehydrated by washing in xylene (3×5 min), 100% ethanol (1 min), 96% ethanol (1 min) and distilled water (2 min). Each section was fully covered in haematoxylin stain and left for 5 min before being washed twice in distilled water for 15 s. […]
Sections were imaged using an Olympus BX51 microscope at a magnification of 1.25×. Images were then analysed using ImageJ software. Thickness of muscle were measured from luminal surface to muscularis mucosa and from luminal surface to external muscle layer. […]
For the histological analysis of colonic tissue, statistical analysis was performed using GraphPad Prism 9. Normality was assessed using the Shapiro-Wilk test. […]

The mark [4] stands for this setting: study one, CBD 60 mg/kg, vs VPA/VEH.
Setting [5] is: study one, risperidone 0.125 mg/kg.

With `C=C(C)[C@@H]1CCC(C)=C[C@H]1c1c(O)cc(CCCCC)cc1O` [CBD, cannabidiol], the play behaviour result in the assay with rat VPA model of autism [1] (cohort one, CBD 10 mg/kg p.o.) is “Ø”; in the assay on rat VPA model of autism [1] (cohort one, CBD 30 mg/kg p.o.) it was “Ø”; in the assay with rat VPA model of autism [1] (cohort one, CBD 60 mg/kg p.o.), “+”; with rat VPA model of autism [1] (cohort two, CBD 30 mg/kg, THC 0 mg/kg p.o.), “Ø”; with rat VPA model of autism [1] (cohort two, CBD 60 mg/kg, THC 0 mg/kg p.o.), “+”. Besides, the “Mount Duration (sec)” value in the assay on rat VPA model of autism [1] (study one, CBD 10 mg/kg) is “X (X = no effect)”; with rat VPA model of autism [1] (study one, CBD 30 mg/kg) it was “X (X = no effect)”; with rat VPA model of autism [1] (study two, CBD alone 30 mg/kg), “X (X = no effect)”. Besides, the “Mount Frequency” value is listed as “X (X = no effect)” in the assay on rat VPA model of autism [1] (study one, CBD 10 mg/kg); “X (X = no effect)” in the assay on rat VPA model of autism [1] (study one, CBD 30 mg/kg); “X (X = no effect)” in the assay with rat VPA model of autism [1] (study two, CBD alone 30 mg/kg); “X (X = no effect)” with rat VPA model of autism [1] (study two, CBD alone 60 mg/kg). For the same molecule, the “Social Play Duration (sec)” value was “X (X = no effect)” in the assay on rat VPA model of autism [1] (study one, CBD 10 mg/kg); “X (X = no effect)” in the assay on rat VPA model of autism [1] (study one, CBD 30 mg/kg); “X (X = no effect)” with rat VPA model of autism [1] (study two, CBD alone 30 mg/kg). For the same molecule, the “Social Play Frequency” value was “X (X = no effect)” in the assay on rat VPA model of autism [1] (study one, CBD 10 mg/kg); “X (X = no effect)” with rat VPA model of autism [1] (study one, CBD 30 mg/kg); “X (X = no effect)” in the assay with rat VPA model of autism [1] (study one, CBD 60 mg/kg); “X (X = no effect)” in the assay with rat VPA model of autism [1] (study two, CBD alone 30 mg/kg); “X (X = no effect)” in the assay on rat VPA model of autism [1] (study two, CBD alone 60 mg/kg). Besides, the “Social Play Latency (sec)” value with rat VPA model of autism [1] (study one, CBD 10 mg/kg) was “X (X = no effect)”; in the assay with rat VPA model of autism [1] (study one, CBD 30 mg/kg) it was “X (X = no effect)”; in the assay on rat VPA model of autism [1] (study one, CBD 60 mg/kg), “X (X = no effect)”; with rat VPA model of autism [1] (study two, CBD alone 30 mg/kg), “X (X = no effect)”; in the assay on rat VPA model of autism [1] (study two, CBD alone 60 mg/kg) it was “X (X = no effect)”. The “latency to engage in mounting play behaviour (delay)” value is recorded as “significantly attenuated” in the assay on rat VPA model of autism [1] (study one, CBD 10 mg/kg, vs VPA/VEH); “significantly attenuated” in the assay on rat VPA model of autism [1] (study one, CBD 30 mg/kg, vs VPA/VEH); “significantly attenuated” in the assay on rat VPA model of autism [1] (setting [4]). For the same molecule, the “decrease in duration of mounting behaviour” value in the assay on rat VPA model of autism [1] (setting [4]) is “reversed”; in the assay with rat VPA model of autism [1] (study two, CBD 60 mg/kg), “reversed”. Besides, in the assay on rat VPA model of autism [1] (setting [4]), the “decrease in frequency of mounting behaviour” value is recorded as “ameliorated”. In addition, the “reduction in social play duration” value in the assay on rat VPA model of autism [1] (setting [4]) is on record as “significantly attenuated”; with rat VPA model of autism [1] (study two, CBD 30 mg/kg) it was “without effect”; in the assay with rat VPA model of autism [1] (study two, CBD 60 mg/kg, vs VPA/VEH), “significantly attenuated”. Also, the “Mount Latency (sec)” value is reported as “X (X = no effect)” in the assay on rat VPA model of autism [1] (study two, CBD alone 30 mg/kg) and “X (X = no effect)” in the assay on rat VPA model of autism [1] (study two, CBD alone 60 mg/kg). In assay [2], the minimum effective dose amounted to 60 mg/kg. In addition, the “Average Muscle Thickness” value worked out at 220.4 μm in the assay on rat VPA model of autism [3] (CBD 30 mg/kg) and 207.2 μm in the assay with rat VPA model of autism [3] (CBD 60 mg/kg). For the same molecule, in the assay on rat VPA model of autism [3] (VPA rats, treatment with CBD (30, 60 mg/kg)), the “thinning of colonic muscle” value was “attenuated”.
With `Cc1nc2n(c(=O)c1CCN1CCC(c3noc4cc(F)ccc34)CC1)CCCC2` [Risperidone, risperidone], the play behaviour entry in the assay on rat VPA model of autism [1] (cohort one, risperidone 0.125 mg/kg i.p.) is on record as “Ø”. In the assay on rat VPA model of autism [1] (risperidone 0.125 mg/kg), the “any other measure of play or social interaction in juvenile animals” value is “without effect”. For the same molecule, in the assay on rat VPA model of autism [1] (setting [5]), the “Mount Duration (sec)” value is on record as “X (X = no effect)”, the “Mount Frequency” value was “X (X = no effect)”, the “Social Play Duration (sec)” value was “X (X = no effect)” and the “Social Play Frequency” value is given as “X (X = no effect)”. Besides, in the assay on rat VPA model of autism [1] (setting [5]), the “Social Play Latency (sec)” value is “X (X = no effect)”.
